In the NIST ThermoML archive (doi:10.1016/j.fluid.2006.01.008):
± gives the expanded uncertainty stated by the source.

Legend:
[1] = 298.15 K, 101.33 kPa, Liquid; for viscosity: Capillary tube (Ostwald / Ubbelohde) method; for speed of sound: Sing-around technique in a fixed-path interferometer; for mass density: Vibrating tube method
[2] = refractive index (Na D-line) (dimensionless); settings: 298.15 K; 101.33 kPa; Liquid; Standard Abbe refractometry
[3] = xn = mol fraction of the nth substance listed; settings: 298.15 K, 101 kPa, Liquid; for viscosity: Capillary tube (Ostwald / Ubbelohde) method; for speed of sound: Sing-around technique in a fixed-path interferometer; for mass density: Vibrating tube method
[4] = refractive index (Na D-line) (dimensionless); xn = mol fraction of the nth substance listed; settings: 298.15 K, 101 kPa, Liquid, Standard Abbe refractometry

CCO [ethanol]
Settings	mass density [kg/m3]	refractive index	speed of sound [m/s]	viscosity [mPa·s]
[1]	785.22 ± 0.12	–	1144 ± 1	1.077 ± 0.031
[2]	–	1.3592 ± 0.00031	–	–

CO [methanol]
Settings	mass density [kg/m3]	refractive index	speed of sound [m/s]	viscosity [mPa·s]
[1]	786.63 ± 0.13	–	1102 ± 1	0.541 ± 0.03
[2]	–	1.3264 ± 0.00032	–	–

CCCCCCCC[n+]1ccn(C)c1.F[B-](F)(F)F [1-methyl-3-octylimidazolium tetrafluoroborate] + CO
Settings	mass density, [3] [kg/m3]	refractive index, [4]	speed of sound, [3] [m/s]	viscosity, [3] [mPa·s]
x1 = 0.0495	869.02 ± 0.11	1.35534 ± 0.00032	1188 ± 1	0.981 ± 0.071
x1 = 0.0979	921.23 ± 0.11	1.3733 ± 0.00032	1243 ± 1	1.622 ± 0.071
x1 = 0.1997	986.4 ± 0.13	1.39501 ± 0.00032	1323 ± 1	3.85 ± 0.074
x1 = 0.2859	1018.55 ± 0.13	1.40551 ± 0.00033	1366 ± 1	7.131 ± 0.081
x1 = 0.3648	1038.89 ± 0.14	1.41222 ± 0.00033	1394 ± 1	11.81 ± 0.1
x1 = 0.4461	1054.52 ± 0.16	1.41738 ± 0.00033	1416 ± 1	18.9 ± 0.13
x1 = 0.4922	1061.78 ± 0.17	1.41982 ± 0.00034	1426 ± 1	24.16 ± 0.16
x1 = 0.5121	1064.62 ± 0.17	1.42076 ± 0.00034	1430 ± 1	27.22 ± 0.18
x1 = 0.5709	1072.21 ± 0.18	1.42339 ± 0.00034	1440 ± 1	38.28 ± 0.24
x1 = 0.5972	1075.25 ± 0.18	1.42443 ± 0.00034	1445 ± 2	44.63 ± 0.28
x1 = 0.6485	1080.67 ± 0.2	1.42629 ± 0.00035	1452 ± 2	57.72 ± 0.33
x1 = 0.785	1092.37 ± 0.24	1.43029 ± 0.00035	1469 ± 2	123.9 ± 2
x1 = 0.9049	1100.21 ± 0.28	1.43284 ± 0.00036	1482 ± 2	228.6 ± 6.1

CCCCCCCC[n+]1ccn(C)c1.F[B-](F)(F)F [1-methyl-3-octylimidazolium tetrafluoroborate] + CCCO
Settings	mass density, [3] [kg/m3]	refractive index, [4]	speed of sound, [3] [m/s]	viscosity, [3] [mPa·s]
x1 = 0.0473	844.63 ± 0.12	1.39108 ± 0.00032	1232 ± 1	2.789 ± 0.072
x1 = 0.0982	883.64 ± 0.12	1.3978 ± 0.00032	1256 ± 1	3.942 ± 0.074
x1 = 0.2034	943.18 ± 0.14	1.40783 ± 0.00032	1306 ± 1	7.531 ± 0.081
x1 = 0.241	959.69 ± 0.13	1.41061 ± 0.00032	1321 ± 1	9.169 ± 0.085
x1 = 0.2958	980.53 ± 0.13	1.41405 ± 0.00033	1343 ± 1	12.21 ± 0.1
x1 = 0.4007	1012.5 ± 0.16	1.41928 ± 0.00033	1377 ± 1	20.65 ± 0.13
x1 = 0.4355	1021.38 ± 0.16	1.42071 ± 0.00033	1387 ± 1	24.52 ± 0.15
x1 = 0.4988	1035.79 ± 0.17	1.42301 ± 0.00034	1403 ± 1	33.31 ± 0.21
x1 = 0.5506	1046.19 ± 0.17	1.42472 ± 0.00034	1414 ± 1	43.39 ± 0.27
x1 = 0.6165	1057.95 ± 0.19	1.42671 ± 0.00034	1428 ± 2	59.9 ± 0.34
x1 = 0.6778	1067.63 ± 0.2	1.42832 ± 0.00035	1439 ± 2	79.52 ± 0.75
x1 = 0.7828	1081.97 ± 0.23	1.43069 ± 0.00035	1457 ± 2	130.9 ± 2.3
x1 = 0.9118	1096.63 ± 0.28	1.43297 ± 0.00036	1477 ± 2	238.4 ± 6.5
